Data reported in patent US20160318856A1, “Substituted Urea eIF2alpha Kinase Activators” (THE BRIGHAM AND WOMEN'S HOSPITAL, INC., priority 2013, published 2016).
Read-outs that look alike come from different tables or passages of the source.

Key:
Format in all cases: cell-based
NIH/3T3 fibroblast cells = assay: cell proliferation (SRB) assay, NIH/3T3; settings: for IC50: Mus musculus, NIH3T3
Method: (§1) Cells were seeded in 96-well plates and maintained for 5 days in the presence of 0.5 to 20 μM of individual compound, and cell proliferation was measured by the sulforhodamine B (SRB) assay as described previously (see, for example, Palakurthi, S. S. et al. Cancer Research 2000, 60(11), 2919-2925). Briefly, at the end of a 5-day treatment, cells were fixed in 10% cold trichloroacetic acid. Cell number was estimated by measuring the remaining bound dye of sulforhodamine B after washing. The percentage of growth was calculated by using the equation: 100×[(T−T0)/(C−T0)], where T and C represent the absorbance in treated and control cultures at Day 5, and T0 at time zero, respectively. If T is less than T0, cell death has occurred and can be calculated from 100×[(T−T0)/T0].
The experiments were conducted in triplicate, and each experiment was independently performed three times. IC50=effective dose of drug that inhibit cell proliferation by 50%. Data are shown as Mean±S.E.M.
Compounds I-6p, I-17, I-18 and I-20 were tested in NIH/3T3 fibroblast and CRL-2813 melanoma cancer cells in cell proliferation assay. The experiment was conducted in triplicate and each experiment was independently performed three times. Data are shown as Mean IC50±S.E.M.

RAMOS = assay: cell proliferation assay, RAMOS; settings: Homo sapiens, Lymphoma
Method: as §1

ACHN = assay: cell proliferation assay, ACHN; settings: Homo sapiens, Kidney
Method: as §1

Huh-7 = assay: cell proliferation assay, Huh-7; settings: Homo sapiens; Huh-7, Liver
Method: as §1

HEP B3 = assay: cell proliferation assay, HEP B3; settings: HEP B3, Liver
Method: as §1

A-549 = assay: cell proliferation assay, A-549; settings: Homo sapiens, A549; A-549, Lung
Method: as §1

ASPC-1 = assay: cell proliferation assay, ASPC-1; settings: Homo sapiens, ASPC1; ASPC-1, Pancreas; read-out: IC50
Method: as §1
The compounds shown in Table 7 were evaluated using for activation of HRI using the dual luciferase surrogate eIF2α phosphorylation assay (see, for example, Chen, T. et al. Nature Chem Biol 2011, 7, 610-616) and for inhibition of cell proliferation using the SRB assay (see, for example, Palakurthi, S. S. et al. Cancer Res 2000, 60, 2919-2925) as described above.

HT-29 = assay: cell proliferation assay, HT-29; settings: Homo sapiens; HT-29, Colon
Method: as §1

BAF-3 = assay: cell proliferation assay, BAF-3; settings: Mus musculus, BaF3; BAF-3, Leukemia
Method: as §1

CaSki = assay: cell proliferation assay, CaSki; settings: Homo sapiens, Ca-Ski, Cervix
Method: as §1

[1] = system: MCF-7 human breast cancer cells; assay: cell proliferation assay, MCF-7; settings: MCF7, MCF-7, Breast
Method: as §1

- IC50 (RAMOS): 800 nM
- IC50 (ACHN): 1400 nM
- IC50 (Huh-7): 2100 nM
- IC50 (A-549): 900 nM
- IC50 (ASPC-1): 2400 nM
- IC50 (HT-29): 2700 nM
- IC50 [1]: 1300 nM
SMILES: O=C(Nc1cccc(C(F)(F)F)c1)NC1CCC(Oc2ccc(OC(F)(F)F)cc2)CC1 (stereo not shown) [Compound I-17, 1-(4-(4-(trifluoromethoxy)phenoxy)cyclohexyl)-3-(3-(trifluoromethyl)phenyl)urea]
- fold higher potency on cancer cells compared to non-transformed cells (NIH/3T3 fibroblast cells; CRL-2813 human melanoma vs NIH-3T3 fibroblast): five-fold higher potency
- IC50 (NIH/3T3 fibroblast cells; NIH/3T3, Table 5, Mean±S.E.M., read-out: IC50): 3400 ± 200 nM
- IC50 (NIH/3T3 fibroblast cells; NIH/3T3, Table 8, Mean IC50±S.E.M., read-out: IC50 of compounds): 3400 ± 200 nM
- IC50 (HEP B3): 1800 nM
- IC50 (BAF-3): 800 nM
- IC50 (CaSki): 2800 nM
